Data set [1] can be described thus: refractive index (Na D-line) (dimensionless); mn = molality of the nth substance listed, in mol/kg. As to conditions: 298.15 K, 101 kPa, Liquid, Standard Abbe refractometry.
Data set [2] in a line: mn = molality of the nth substance listed, in mol/kg. As to conditions: 298.15 K, 101 kPa, Liquid, Pycnometric method.

Numbers after ± are expanded uncertainties.

One may read the refractive index as the speed of light in vacuum divided by its phase velocity in the sample. One may read the mass density as the mass of a sample divided by its volume. For the molecule `N[C@@H](CS)C(=O)O` [(R)-2-amino-3-mercaptopropanoic acid] + O, in data set [1] (m1 = 1.821), the refractive index amounted to 1.3439 ± 0.0004. Also, the mass density in data set [2] (m1 = 1.821) is reported as 1074.1 ± 1.1 kg/m3.
`NCCCC[C@H](N)C(=O)O` [L-lysine] + O: in data set [1] (m1 = 4.734), the refractive index is listed as 1.4155 ± 0.0004. The mass density in data set [2] (m1 = 4.734) stood at 1242.1 ± 1.1 kg/m3.
